# Measurements as given in patent US20140018426A1, “FOOD OR BEVERAGE COMPOSITION FORTIFIED WITH THYRONAMINES AND/OR THYRONAMINE PRECURSORS” (priority 2009, published 2014).
# Values joined by “and” are separate entries in the source; they are usually repeats but may differ in a detail not shown here. Identical values can stand only once. Like-named read-outs stand apart in the source and are kept apart here.
# Experiments:
# [1] = system: hypercholesterolemic patients; details: cited from earlier work; for decrease in body weight: 300 mg daily for 8 months
# [2] = system: rat working heart preparation; details: cited from earlier work
# mice [3] = details: cited from earlier work
# [4] = target: norepenephrin transporter (Homo sapiens, UniProt P23975); details: cited from earlier work
# [5] = target: trace amine-associated receptor 1 (TAAR1) (Homo sapiens, UniProt Q96RJ0); details: cited from earlier work
# [6] = system: Siberian hamsters (Phodopus sungorus); details: cited from earlier work
# mice [7] = details: single dose T1AM (normal 0.83); cited from earlier work
# [8] = system: middle cerebral artery occlusion (MCAO) stroke model in mice; details: cited from earlier work
# mice [9] = details: cited from earlier work; remark: listed apart in the source
# [10] = target: serotonin 5HT-2c receptor (Homo sapiens, UniProt P28335); details: cited from earlier work
# [11] = target: alpha-2A adrenergic receptor (Homo sapiens, UniProt P08913); details: cited from earlier work
# [12] = system: vesicular monoamine transporter; details: cited from earlier work
# serotonin transporter = serotonin transporter (Homo sapiens, UniProt P31645); details: cited from earlier work
# dopamine transporter = dopamine transporter (Homo sapiens, UniProt Q01959); details: cited from earlier work
# rats = details: 250 mcg/kg p.o. q.d. for 30 days, compared to controls; cited from earlier work
# C57 [13] = assay: Serum triglycerides, C57 mice on Western Diet, daily oral T2; format: in vivo; details: C57, low and high dose T2
# Excerpt: (§1) Mice in the study were fed a standard lab chow referred to as the “Western Diet.” The overall level of fat and the saturated nature of the fat are representative diets typical in the industrialized west that are linked to risk of cardiovascular disease in humans. The formula is used primarily with genetically manipulated rodent models that are susceptible to high cholesterol and cardiovascular disease. The diet may also be useful in diet-induced obesity, diabetes, and metabolic syndrome models. High cholesterol, obesity, and diabetes are each associated increased risk for cardiovascular disease. The composition of the Western Diet is shown below in Table 1.
# (§2) C57 is a wild-type strain, LDLr+/− are a strain carrying one functional copy of the LDLr gene, and the LDLrO animals are total LDLr knockouts. The LDLr gene encodes for the LDL receptor protein, which is responsible for scavenging LDL with bound cholesterol from the blood and transporting it into cells. Both heterozygous and homozygous LDLr knockout animals develop very high serum cholesterol levels and are considered to be a good model for heterozygous and homozygous familial hypercholesterolemia in humans.
# (§3) LDLr knockout animals have zero LDL receptor function. […] This effect was independent of weight loss.
# [14] = system: thyroid receptor homodimer; details: in contrast to T3; cited from earlier work
# LDLr0 [15] = assay: Serum triglycerides, LDLr knockout mice on Western Diet, daily oral T2; format: in vivo; details: low and high dose T2
# Excerpt: as §1, §2, §3
# [16] = Body weight, LDLr knockout mice on Western Diet, daily oral T2; format: in vivo
# Excerpt: as §1, §2, §3
# [17] = system: growth hormone gene expression; details: cited from earlier work
# [18] = Body weight, LDLr+/− mice on Western Diet, daily oral T2; format: in vivo; parameters: Body weight, Ave: unit not given here
# Excerpt: as §1, §2, §3
# LDLr0 [19] = assay: Blood Sugar (serum glucose), LDLr knockout mice on Western Diet, daily oral T2; format: in vivo; details: for Blood Sugar, individual animal: LDLr0 mice, Western Diet
# Excerpt: as §1, §2, §3
# LDLr+/− [20] = assay: Serum triglycerides, LDLr+/− mice on Western Diet, daily oral T2; format: in vivo; details: low and high dose T2
# Excerpt: as §1, §2, §3
# [21] = Body weight, C57 mice on Western Diet, daily oral T2; format: in vivo
# Excerpt: as §1, §2, §3
# C57 [22] = assay: Blood Sugar (serum glucose), C57 mice on Western Diet, daily oral T2; format: in vivo; details: for Blood Sugar, individual animal: C57 mice, Western Diet
# Excerpt: as §1, §2, §3
# TR β gene expression = details: cited from earlier work
# LDLr+/− [23] = assay: Blood Sugar (serum glucose), LDLr+/− mice on Western Diet, daily oral T2; format: in vivo; details: for Blood Sugar, individual animal: LDLr+/− mice, Western Diet
# Excerpt: as §1, §2, §3
# TR α1, β1 and β2 = details: in vitro studies; cited from earlier work
# trace amine-associated receptor 1 (TAAR1), sequence (Q96RJ0 whole entry, species assumed): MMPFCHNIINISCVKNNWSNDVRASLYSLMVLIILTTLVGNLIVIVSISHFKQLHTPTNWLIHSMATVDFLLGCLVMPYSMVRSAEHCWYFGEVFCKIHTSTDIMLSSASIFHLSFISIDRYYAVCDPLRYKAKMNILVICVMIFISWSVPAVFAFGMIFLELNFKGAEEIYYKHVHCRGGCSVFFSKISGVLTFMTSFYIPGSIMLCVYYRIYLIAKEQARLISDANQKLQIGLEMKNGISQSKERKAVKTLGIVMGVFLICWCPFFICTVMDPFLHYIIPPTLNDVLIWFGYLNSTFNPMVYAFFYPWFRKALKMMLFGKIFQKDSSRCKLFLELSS
# alpha-2A adrenergic receptor, sequence (P08913 whole entry): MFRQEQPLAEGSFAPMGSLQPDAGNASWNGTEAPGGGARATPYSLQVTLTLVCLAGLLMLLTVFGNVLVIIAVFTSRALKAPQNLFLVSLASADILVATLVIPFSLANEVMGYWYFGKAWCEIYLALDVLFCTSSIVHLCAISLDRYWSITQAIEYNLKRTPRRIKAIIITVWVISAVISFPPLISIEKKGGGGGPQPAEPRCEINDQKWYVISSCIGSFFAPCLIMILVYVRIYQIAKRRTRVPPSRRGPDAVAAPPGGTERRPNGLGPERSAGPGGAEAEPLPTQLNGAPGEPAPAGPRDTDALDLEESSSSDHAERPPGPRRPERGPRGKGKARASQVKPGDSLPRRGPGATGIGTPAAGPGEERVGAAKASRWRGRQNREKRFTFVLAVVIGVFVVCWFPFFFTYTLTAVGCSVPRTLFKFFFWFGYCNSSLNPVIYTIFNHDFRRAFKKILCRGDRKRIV
# serotonin 5HT-2c receptor, sequence (P28335 33-458): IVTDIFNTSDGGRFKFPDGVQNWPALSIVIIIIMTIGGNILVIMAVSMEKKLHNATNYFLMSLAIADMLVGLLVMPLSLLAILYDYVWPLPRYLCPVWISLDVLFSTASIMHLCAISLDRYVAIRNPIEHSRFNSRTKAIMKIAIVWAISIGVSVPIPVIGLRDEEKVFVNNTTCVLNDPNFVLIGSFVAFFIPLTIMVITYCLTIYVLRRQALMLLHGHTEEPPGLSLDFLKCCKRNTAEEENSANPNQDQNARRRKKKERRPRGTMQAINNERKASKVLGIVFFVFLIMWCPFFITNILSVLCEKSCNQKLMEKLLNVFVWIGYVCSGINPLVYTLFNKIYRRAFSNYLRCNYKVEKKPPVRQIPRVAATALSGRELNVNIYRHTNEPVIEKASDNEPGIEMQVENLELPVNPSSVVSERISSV
# serotonin transporter, sequence (P31645 whole entry): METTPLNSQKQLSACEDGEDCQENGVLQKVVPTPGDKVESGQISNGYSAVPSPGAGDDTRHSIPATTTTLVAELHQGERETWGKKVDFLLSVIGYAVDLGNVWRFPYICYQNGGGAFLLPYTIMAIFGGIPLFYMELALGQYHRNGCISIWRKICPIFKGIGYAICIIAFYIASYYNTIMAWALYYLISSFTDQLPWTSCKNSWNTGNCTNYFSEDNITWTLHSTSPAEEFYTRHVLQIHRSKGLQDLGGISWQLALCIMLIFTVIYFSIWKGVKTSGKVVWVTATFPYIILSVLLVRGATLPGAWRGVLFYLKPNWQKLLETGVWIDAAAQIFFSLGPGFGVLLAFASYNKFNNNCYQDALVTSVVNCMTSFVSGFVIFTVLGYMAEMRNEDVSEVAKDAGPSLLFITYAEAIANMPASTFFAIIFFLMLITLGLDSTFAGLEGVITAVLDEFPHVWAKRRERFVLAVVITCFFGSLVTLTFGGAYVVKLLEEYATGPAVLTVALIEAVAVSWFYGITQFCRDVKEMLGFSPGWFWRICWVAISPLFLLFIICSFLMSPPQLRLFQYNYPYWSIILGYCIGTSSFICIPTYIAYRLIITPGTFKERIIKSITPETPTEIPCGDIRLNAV
# norepenephrin transporter, sequence (P23975 whole entry): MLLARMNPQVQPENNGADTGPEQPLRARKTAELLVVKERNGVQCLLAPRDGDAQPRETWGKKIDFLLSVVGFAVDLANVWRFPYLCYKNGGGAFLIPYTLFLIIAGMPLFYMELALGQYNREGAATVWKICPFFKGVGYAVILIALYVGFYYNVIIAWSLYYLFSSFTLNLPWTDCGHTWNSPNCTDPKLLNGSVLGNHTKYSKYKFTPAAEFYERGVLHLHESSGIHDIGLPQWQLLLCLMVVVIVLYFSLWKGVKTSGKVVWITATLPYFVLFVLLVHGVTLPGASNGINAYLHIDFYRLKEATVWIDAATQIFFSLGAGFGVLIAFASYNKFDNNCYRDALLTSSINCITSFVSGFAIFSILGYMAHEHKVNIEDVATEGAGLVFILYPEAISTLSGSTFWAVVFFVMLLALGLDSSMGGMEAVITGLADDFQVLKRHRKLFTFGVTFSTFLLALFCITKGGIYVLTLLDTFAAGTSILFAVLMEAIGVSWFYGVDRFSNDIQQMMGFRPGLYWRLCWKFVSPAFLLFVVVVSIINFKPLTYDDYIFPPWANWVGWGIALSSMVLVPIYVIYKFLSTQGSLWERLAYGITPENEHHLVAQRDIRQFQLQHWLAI
# dopamine transporter, sequence (Q01959 whole entry): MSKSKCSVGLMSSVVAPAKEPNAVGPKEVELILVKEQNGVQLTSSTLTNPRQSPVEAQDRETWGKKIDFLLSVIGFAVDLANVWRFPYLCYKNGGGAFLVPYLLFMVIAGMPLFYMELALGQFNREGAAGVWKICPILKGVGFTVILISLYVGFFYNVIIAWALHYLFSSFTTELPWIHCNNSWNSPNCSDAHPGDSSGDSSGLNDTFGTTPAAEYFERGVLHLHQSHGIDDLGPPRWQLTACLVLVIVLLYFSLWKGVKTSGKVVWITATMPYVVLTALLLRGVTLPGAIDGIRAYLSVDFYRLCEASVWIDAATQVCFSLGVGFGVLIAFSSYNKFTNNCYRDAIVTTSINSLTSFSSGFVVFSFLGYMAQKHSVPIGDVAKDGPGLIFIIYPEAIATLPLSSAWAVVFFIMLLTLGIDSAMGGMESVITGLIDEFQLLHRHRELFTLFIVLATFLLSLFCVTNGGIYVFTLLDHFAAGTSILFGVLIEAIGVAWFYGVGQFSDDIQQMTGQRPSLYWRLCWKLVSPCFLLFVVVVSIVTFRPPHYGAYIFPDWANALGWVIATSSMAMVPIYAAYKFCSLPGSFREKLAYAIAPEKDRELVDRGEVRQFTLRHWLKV
smiles,measurement,setting,value
"N[C@H](Cc1cc(I)c(Oc2ccc(O)cc2)c(I)c1)C(=O)O [3,5-D-T2]",patients with coronary artery disease with increased anginal symptoms,[1]; 300 mg daily,7 of 13
same,total serum cholesterol decrease,"[1]; at 20 weeks, 300 mg daily",20%
same,decrease in body weight,[1]; euthyroid subjects,5%
same,effect of doses of less than 250 mg/day,"[1]; human, in vivo",ineffective
same,decrease in body weight,[1]; hypothyroid patients,8%
same,mean heart rate on treatment,"[1]; increase from 76, 300 mg daily",88 beats per minute
"NCCc1ccc(Oc2ccc(O)cc2)cc1 [T0AM, thyronamine]",potency as compared to T1AM (fold less potent),[2]; rat working heart preparation,about 10 fold
same,potency on body temperature compared with T1AM,mice [3]; similar results reported as for T1AM,less potent
"NCCc1ccc(Oc2ccc(O)cc2)c(I)c1 [T1AM, 3-iodothyronamine]",norepenephrin transporter function,[4],binds and inhibits
same,TAAR1 activity,[5],potent agonist
same,respiratory quotient (RQ) value,"[6]; Siberian hamsters, single dose T1AM (normal 0.90)",approximately 0.7
same,time of urine ketone content peak post-injection,[6]; Siberian hamsters,16 h
same,time to complete RQ shift post-injection,[6]; in vivo,about 4.5 hours
same,persistence of 0.7 RQ after the T1AM injection,[6]; summer acclimatized Siberian hamsters,at least 24 h
same,respiratory quotient (RQ) value,mice [7],approximately 0.7
same,reduction of infarct volume,[8],40%
same,time for blood glucose to return to baseline,mice [9],3 to 4 h
same,time of blood glucose peak after the injection,mice [9],1 h
same,increased blood glucose,"mice [9]; injection, at peak",2-5 fold
same,heart rate and systolic aortic pressure,"[2]; rat working heart at 37° C., compound in perfusion buffer",large and immediate decreases
same,serotonin 5HT-2c receptor activity,[10],agonist
same,alpha-2A adrenergic receptor activity,[11],agonist
same,vesicular monoamine transporter function,[12],binds and inhibits
same,serotonin transporter function,serotonin transporter,binds and inhibits
same,dopamine transporter function,dopamine transporter,binds and inhibits
same,time for body temperature to return to normal,"mice [3]; mice, depending on the T1AM dose",4 to 6 h
same,drop in body temperature,"mice [3]; mice, injection",about 10 °C
same,time of body temperature nadir after injection,mice [3]; mice,about 1 hour
"N[C@@H](Cc1cc(I)c(Oc2ccc(O)cc2)c(I)c1)C(=O)O [T2, (2S)-2-amino-3-[4-(4-hydroxyphenoxy)-3,5-diiodophenyl]propanoic acid]",decrease body weight,rats,13%
same,decrease hepatic fat mass,rats,50%
same,increase hepatic fat oxidation,rats,42%
same,lower cholesterol,rats,18%
same,lower serum triglycerides,rats,52%
same,effect on serum triglyceride levels,C57 [13],did not affect
same,effect on thyroid receptor homodimer formation,[14],no effect
same,effect on serum triglyceride levels,LDLr0 [15],did not affect
same,Body weight,"[16]; LDLr0, High Dose T2, Day 1, individual animal, in g (unit assumed)",27.4
same,Body weight,"[16]; LDLr0, High Dose T2, Day 2, individual animal, in g (unit assumed)",23.1 and 24.8
same,Body weight,"[16]; LDLr0, High Dose T2, Day 3, individual animal, in g (unit assumed)",22.8
same,Body weight,"[16]; LDLr0, High Dose T2, Day 4, individual animal, in g (unit assumed)",24.8
same,Body weight,"[16]; LDLr0, High Dose T2, Day 5, individual animal, in g (unit assumed)",23.1
same,Body weight,"[16]; LDLr0, Low Dose T2, Day 6, individual animal",23.1
same,effect on weight gain,"[16]; LDLr knockout, low and high dose T2",did not affect
same,potency relative to T3 in increasing growth hormone gene expression,[17],1/100
same,Body weight,"[18]; High Dose T2, Day 1, individual animal, in g (unit assumed)",31.4
same,Body weight,"[18]; High Dose T2, Day 2, individual animal, in g (unit assumed)",31.0 and 29.1 and 29.9
same,Body weight,"[18]; High Dose T2, Day 4, individual animal, in g (unit assumed)",29.0 and 27.9
same,"Body weight, Ave","[18]; Low Dose T2, Day 2, group average",28.1
same,Body weight,"[18]; Low Dose T2, Day 2, individual animal",282
same,Body weight,"[18]; Low Dose T2, Day 3, individual animal",29.7 and 31.4
same,Body weight,"[18]; Low Dose T2, Day 4, individual animal",27.4
same,Body weight,"[18]; Low Dose T2, Day 5, individual animal",29.5
same,Body weight,"[18]; Low Dose T2, Day 6, individual animal",29.1
same,Body weight,"[18]; Low Dose T2, Day 7, individual animal",31.0 and 29.6 (2×) and 28.2
same,effect on weight gain,[18]; low and high dose T2,did not affect
same,"Blood Sugar, individual animal",LDLr0 [19]; 1 Week High Dose T2,87
same,"Blood Sugar, individual animal",LDLr0 [19]; 1 Week Low Dose T2,54 and 79
same,"lower blood sugar levels, average","LDLr0 [19]; all genetic groups (LDLr knockout), high doses of T2, vs controls",45-50%
same,effect on serum triglyceride levels,LDLr+/− [20],did not affect
same,"Body weight, Ave","[21]; C57, High Dose T2, Day 1, group average",28.1 g
same,Body weight,"[21]; C57, High Dose T2, Day 1, individual animal",29.6 (2×) and 24.9 and 26.7
same,Body weight,"[21]; C57, High Dose T2, Day 2, individual animal, in g (unit assumed)",29.5 and 25.8 and 29.7
same,Body weight,"[21]; C57, High Dose T2, Day 3, individual animal, in g (unit assumed)",25.1 and 29.9 and 27.2
same,Body weight,"[21]; C57, High Dose T2, Day 4, individual animal, in g (unit assumed)",29.1 and 28.7
same,Body weight,"[21]; C57, High Dose T2, Day 5, individual animal, in g (unit assumed)",29.1 and 28.5
same,Body weight,"[21]; C57, Low Dose T2, Day 2, individual animal",24.9
same,Body weight,"[21]; C57, Low Dose T2, Day 4, individual animal",25.1
same,Body weight,"[21]; C57, Low Dose T2, Day 6, individual animal",29.9 and 24.8 and 28.7
same,effect on weight gain,"[21]; C57, low and high dose T2",did not affect
same,"Blood Sugar, individual animal",C57 [22]; 1 Week High Dose T2,74 and 120 and 92
same,"Blood Sugar, individual animal",C57 [22]; 1 Week Low Dose T2,190 and 120
same,"lower blood sugar levels, average","C57 [22]; all genetic groups (C57), high doses of T2, vs controls",45-50%
same,less potent than T3 in decreasing TR β gene expression,TR β gene expression,50%
same,"Blood Sugar, individual animal",LDLr+/− [23]; 1 Week High Dose T2,99 and 94 and 80
same,"Blood Sugar, individual animal",LDLr+/− [23]; 1 Week Low Dose T2,210
same,"lower blood sugar levels, average","LDLr+/− [23]; all genetic groups (LDLr+/−), high doses of T2, vs controls",45-50%
"N[C@@H](Cc1cc(I)c(Oc2ccc(O)c(I)c2)c(I)c1)C(=O)O [T3, (2S)-2-amino-3-[4-(4-hydroxy-3-iodophenoxy)-3,5-diiodophenyl]propanoic acid]","affinity for TR α1, β1 and β2, fold greater than that of T2","TR α1, β1 and β2",40-500 fold
